Data from paper PMC9788431, “Combination of Docking-Based and Pharmacophore-Based Virtual Screening Identifies Novel Agonists That Target the Urotensin Receptor” (Molecules, 2022).
pIC50: −log10 of the molar value.

Tests used:
UT receptor [1] = target: T1, UT receptor (Homo sapiens, UniProt Q9UKP6); parameters: method as in ChEMBL database and others; settings: antagonist; Table S1 benchmarking ligands; ref ChEMBL database and others; cited from earlier work
T1 construct: SNAP-tag; expressed in transfected cells; host or cells: 293A8 (HEK293A stably transfected with the UT receptor); inferred, the calcium-assay paragraph names no cells
T1 sequence (Q9UKP6 1-389): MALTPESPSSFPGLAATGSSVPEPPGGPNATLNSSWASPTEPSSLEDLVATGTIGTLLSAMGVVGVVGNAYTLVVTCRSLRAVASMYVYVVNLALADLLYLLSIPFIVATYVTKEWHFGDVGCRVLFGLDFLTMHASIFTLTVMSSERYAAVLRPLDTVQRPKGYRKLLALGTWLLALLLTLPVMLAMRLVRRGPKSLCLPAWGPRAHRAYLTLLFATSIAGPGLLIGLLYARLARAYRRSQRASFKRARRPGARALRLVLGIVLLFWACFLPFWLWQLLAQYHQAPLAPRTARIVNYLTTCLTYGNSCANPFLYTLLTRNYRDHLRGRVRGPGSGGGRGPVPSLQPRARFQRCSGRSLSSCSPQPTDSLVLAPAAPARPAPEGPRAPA

UT receptor [2] = target: T1, UT receptor; test: intracellular calcium mobilization (Fluo-8 calcium assay); assay type: cell-based; settings: palosuran 10^−7 M, with Compounds 1, 2, 3
Experimental: HTLA cells (a HEK293 cell line stably expressing a tTA-dependent luciferase reporter and a β-arrestin2-TEV fusion gene) were a gift from the laboratory of R. Axel (he has given us permission to distribute them) and are maintained in DMEM supplemented with 10% FBS, 100 U/mL penicillin and 100 μg/mL streptomycin, 2 μg/mL puromycin and 100 μg/mL hygromycin B. HepG2 cells (C5 passage, human hepatoma cell line) were purchased from the National Platform of Experimental Cell Resources for Sci-Tech, Chinese Academy of Medical Sciences (Beijing, China), and 293A8 cells were the cell line HEK293A stably transfected with the UT receptor in our laboratory. HepG2 and 293A8 cells were grown in high glucose (25 mmol/L) Dulbecco’s modified Eagle’s medium (DMEM, Gibco, CA, USA) supplemented with 10% fetal bovine serum (FBS, Gibco, CA, USA), 100 U/mL penicillin and 100 µg/mL streptomycin solution (Solarbio, Beijing, China). Cells were cultured in a standard humidified incubator at 37 °C under a 5% CO2 atmosphere. The media were changed every 2 days. Subcultures were performed at a ratio of 1:3 when cells were approximately 75–85% confluent.
Measurement of intracellular calcium mobilization was performed using Fluo-8 Calcium Assay Kit (Applygen, Beijing, China) following the manufacturer’s instructions.

SMILES	pIC50 (UT receptor [1])	effect of palosuran preincubation on compound-induced intracellular calcium mobilization (UT receptor [2])
CN1CC[C@H](Oc2cc(NCc3c(Br)ccc4c3OCO4)ccc2C(F)(F)F)C1 [CHEMBL2348518]	6.21	
COc1cc(Br)c(S(=O)(=O)Nc2ccc(C(F)(F)F)c(OCCN(C)C)c2)cc1OC [CHEMBL2348523]	7.00	
COc1cc(Br)c(S(=O)(=O)Nc2ccc(C(F)(F)F)c(OCCN3CCN(C)CC3)c2)cc1OC [CHEMBL2348527]	6.08	
CC(C)[C@H](NC(=O)[C@@H]1CSSC[C@H](NC(=O)[C@H](C)N)C(=O)N[C@@H](Cc2ccccc2)C(=O)N[C@@H]2Cc3c([nH]c4ccccc34)CN(C2=O)[C@@H](CCCCN)C(=O)N[C@@H](Cc2ccc(O)cc2)C(=O)N1)C(=O)O [CHEMBL3104461]	7.22	
CC(C)[C@H](NC(=O)[C@@H]1CSSC[C@H](NC(=O)[C@H](C)N)C(=O)N[C@@H](Cc2ccccc2)C(=O)N[C@@H](c2ccccc2)C(=O)N[C@@H](CCCCN)C(=O)N[C@@H](Cc2ccc(O)cc2)C(=O)N1)C(=O)O [CHEMBL3104462]	7.53	
CC(C)[C@H](NC(=O)[C@@H]1CSSC[C@H](NC(=O)[C@H](C)N)C(=O)N[C@@H](Cc2ccccc2)C(=O)N[C@H](c2ccccc2)C(=O)N[C@@H](CCCCN)C(=O)N[C@@H](Cc2ccc(O)cc2)C(=O)N1)C(=O)O [CHEMBL3104463]	7.56	
CC(C)[C@H](NC(=O)[C@@H]1CSSC[C@H](NC(=O)[C@H](C)N)C(=O)N[C@@H](Cc2ccccc2)C(=O)N2CCc3ccccc3[C@H]2C(=O)N[C@@H](CCCCN)C(=O)N[C@@H](Cc2ccc(O)cc2)C(=O)N1)C(=O)O [CHEMBL3104464]	8.00	
CC(C)[C@H](NC(=O)[C@@H]1CSSC[C@H](NC(=O)[C@H](C)N)C(=O)N[C@@H](Cc2ccccc2)C(=O)N2CCc3ccccc3[C@@H]2C(=O)N[C@@H](CCCCN)C(=O)N[C@@H](Cc2ccc(O)cc2)C(=O)N1)C(=O)O [CHEMBL3104465]	7.68	
CC(C)[C@H](NC(=O)[C@@H]1CSSC[C@H](NC(=O)[C@H](C)N)C(=O)N[C@@H](Cc2ccccc2)C(=O)N2Cc3ccccc3C[C@@H]2C(=O)N[C@@H](CCCCN)C(=O)N[C@@H](Cc2ccc(O)cc2)C(=O)N1)C(=O)O [CHEMBL3104467]	7.06	
CC(C)[C@H](NC(=O)[C@@H]1CSSC[C@H](NC(=O)[C@H](C)N)C(=O)N[C@@H](Cc2ccccc2)C(=O)N[C@@H](Cc2c[nH]c3ccccc23)C(=O)N[C@@H](CCCCN)C(=O)N[C@@H](Cc2ccc(O)cc2)C(=O)N1)C(=O)O [CHEMBL3104471]	7.92	
CC(C)[C@H](NC(=O)[C@@H]1CSSC[C@H](NC(=O)[C@H](C)N)C(=O)N[C@@H](Cc2ccccc2)C(=O)N[C@@H](Cc2cccc3ccccc23)C(=O)N[C@@H](CCCCN)C(=O)N[C@@H](Cc2ccc(O)cc2)C(=O)N1)C(=O)O [CHEMBL3104637]	7.77	
CC(C)[C@H](NC(=O)[C@@H]1CSSC[C@H](NC(=O)[C@H](C)N)C(=O)N[C@@H](Cc2ccccc2)C(=O)N[C@H](Cc2cccc3ccccc23)C(=O)N[C@@H](CCCCN)C(=O)N[C@@H](Cc2ccc(O)cc2)C(=O)N1)C(=O)O [CHEMBL3104638]	7.34	
CC(C)[C@H](NC(=O)[C@@H]1CSSC[C@H](NC(=O)[C@H](C)N)C(=O)N[C@@H](Cc2ccccc2)C(=O)N[C@@H](Cc2ccc(I)cc2)C(=O)N[C@@H](CCCCN)C(=O)N[C@@H](Cc2ccc(O)cc2)C(=O)N1)C(=O)O [CHEMBL3104639]	7.24	
CC(C)[C@H](NC(=O)[C@@H]1CSSC[C@H](NC(=O)[C@H](C)N)C(=O)N[C@@H](Cc2ccccc2)C(=O)N[C@@H](C(c2ccccc2)c2ccccc2)C(=O)N[C@@H](CCCCN)C(=O)N[C@@H](Cc2ccc(O)cc2)C(=O)N1)C(=O)O [CHEMBL3104643]	6.56	
Cn1ccc2c(NC(=O)NCCN3CCC(O)(Cc4ccccc4)CC3)ccnc21 [CHEMBL3358667]	6.80	
O=C(NCCN1CCC(O)(Cc2ccccc2)CC1)Nc1ccnc2ccoc12 [CHEMBL3358671]	6.35	
O=C(NCCN1CCC(O)(Cc2ccccc2)CC1)Nc1ccnc2sccc12 [CHEMBL3358673]	6.03	
Cc1cc2nccc(NC(=O)NCCN3CCC(O)(Cc4ccccc4)CC3)c2s1 [CHEMBL3358674]	7.11	
Cc1cc(NC(=O)NCCN2CCC(O)(Cc3ccccc3)CC2)c2sccc2n1 [CHEMBL3358679]	7.59	
CCc1cc(NC(=O)NCCN2CCC(O)(Cc3ccccc3)CC2)c2sccc2n1 [CHEMBL3358680]	7.22	
Cc1ccccc1CC1(O)CCN(CCNC(=O)Nc2ccnc3ccsc23)CC1 [CHEMBL3358682]	7.70	

SMILES	pIC50 (UT receptor [1])	effect of palosuran preincubation on compound-induced intracellular calcium mobilization (UT receptor [2])
Cc1cccc(CC2(O)CCN(CCNC(=O)Nc3ccnc4ccsc34)CC2)c1 [CHEMBL3358683]	6.85	
Cc1ccc(CC2(O)CCN(CCNC(=O)Nc3ccnc4ccsc34)CC2)cc1 [CHEMBL3358684]	6.72	
O=C(NCCN1CCC(O)(Cc2ccccc2Br)CC1)Nc1ccnc2ccsc12 [CHEMBL3358685]	7.70	
O=C(NCCN1CCC(O)(Cc2cccc(Br)c2)CC1)Nc1ccnc2ccsc12 [CHEMBL3358686]	7.38	
O=C(NC1CCN(Cc2ccc(OC3CCNCC3)c(Br)c2)CC1)c1cc2cc(Cl)ccc2s1 [CHEMBL3896625]	7.29	
Cc1ccc(-c2ccc3cc(C(=O)NC4CCN(Cc5ccc(OC6CCNCC6)c(Br)c5)CC4)sc3c2)cc1 [CHEMBL3898238]	6.85	
O=C(NC1CCN(Cc2ccc(OC3CCNCC3)c(Br)c2)CC1)c1cc2cc(C(F)(F)F)ccc2s1 [CHEMBL3906682]	7.00	
O=C(NC1CCN(Cc2ccc(OC3CCNCC3)c(Br)c2)CC1)c1cc2ccc(-c3ccc(Cl)cc3)cc2s1 [CHEMBL3907266]	6.85	
COc1ccccc1-c1ccc2cc(C(=O)NC3CCN(Cc4ccc(OC5CCNCC5)c(Br)c4)CC3)sc2c1 [CHEMBL3915656]	6.25	
O=C(NC1CCN(Cc2ccc(OC3CCNCC3)c(Br)c2)CC1)c1cc2cc(Br)ccc2s1 [CHEMBL3915670]	7.07	
O=C(NC1CCN(Cc2ccc(OC3CCNCC3)c(Br)c2)CC1)c1cnccn1 [CHEMBL3920751]	6.21	
O=C(NC1CCN(Cc2ccc(OC3CCNCC3)c(Br)c2)CC1)c1cc2cc(F)ccc2s1 [CHEMBL3924660]	7.28	
O=C(NC1CCN(Cc2ccc(OC3CCNCC3)c(Br)c2)CC1)c1ccco1 [CHEMBL3942137]	6.11	
O=C(NC1CCN(Cc2ccc(OC3CCNCC3)c(Br)c2)CC1)c1cc2cc(-c3ccccc3)ccc2s1 [CHEMBL3949719]	6.51	
COc1ccc2sc(C(=O)NC3CCN(Cc4ccc(OC5CCNCC5)c(Br)c4)CC3)cc2c1 [CHEMBL3957806]	7.00	
Cc1ccc2sc(C(=O)NC3CCN(Cc4ccc(OC5CCNCC5)c(Br)c4)CC3)cc2c1 [CHEMBL3968841]	7.13	
N#Cc1ccc2sc(C(=O)NC3CCN(Cc4ccc(OC5CCNCC5)c(Br)c4)CC3)cc2c1 [CHEMBL3977330]	7.60	
O=C(NC1CCN(Cc2ccc(OC3CCNCC3)c(Br)c2)CC1)c1cccs1 [CHEMBL3979822]	6.89	
COc1cccc(-c2ccc3cc(C(=O)NC4CCN(Cc5ccc(OC6CCNCC6)c(Br)c5)CC4)sc3c2)c1 [CHEMBL3987058]	7.06	
Cc1cc(NC(=O)NCCN2CCC(O)(Cc3ccccc3)CC2)c2ccccc2n1 [palosuran]		specifically reduced the increase in intracellular calcium mobilization
